The record followed here is US20220298141A1, “ENZYME INHIBITORS” (KALVISTA PHARMACEUTICALS LIMITED, priority 2019, published 2022).

The target of this assay is T1, Human Factor XIIa (Homo sapiens, UniProt P00748).
T1 construct: purchased Enzyme Research Laboratories
T1 sequence (P00748 373-615 limits assumed): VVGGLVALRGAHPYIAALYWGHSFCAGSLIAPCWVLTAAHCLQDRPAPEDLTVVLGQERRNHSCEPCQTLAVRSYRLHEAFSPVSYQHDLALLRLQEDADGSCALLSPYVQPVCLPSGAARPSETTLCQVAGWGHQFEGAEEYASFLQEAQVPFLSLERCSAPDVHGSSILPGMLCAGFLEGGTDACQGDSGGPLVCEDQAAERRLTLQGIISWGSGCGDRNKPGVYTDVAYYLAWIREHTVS
T1 sequence (P00748 20-372 partner limits assumed): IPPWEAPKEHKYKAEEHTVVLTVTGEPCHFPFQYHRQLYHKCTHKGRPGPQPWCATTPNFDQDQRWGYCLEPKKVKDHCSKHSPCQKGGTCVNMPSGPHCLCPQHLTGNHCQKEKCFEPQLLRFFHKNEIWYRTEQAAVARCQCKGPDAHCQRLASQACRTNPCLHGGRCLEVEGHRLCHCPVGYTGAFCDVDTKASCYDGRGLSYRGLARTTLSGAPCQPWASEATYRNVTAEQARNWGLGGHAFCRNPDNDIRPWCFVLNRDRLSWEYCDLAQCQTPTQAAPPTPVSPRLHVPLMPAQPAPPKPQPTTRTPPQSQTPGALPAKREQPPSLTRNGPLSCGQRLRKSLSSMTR
Kind of assay: Determination of Factor XIIa inhibitory activity in vitro (fluorogenic substrate H-DPro-Phe-Arg-AFC). It counts as biochemical. The note with it: Human Factor XIIa (Enzyme Research Laboratories), 25° C., read-out: Human FXIIa IC50. Here is the method:
Determination of the % Inhibition for FXIIa
Factor XIIa inhibitory activity in vitro was determined using standard published methods (see e.g. Shori et al., Biochem. Pharmacol., 1992, 43, 1209; Baeriswyl et al., ACS Chem. Biol., 2015, 10 (8) 1861; Bouckaert et al., European Journal of Medicinal Chemistry 110 (2016) 181). Human Factor XIIa (Enzyme Research Laboratories) was incubated at 25° C. with the fluorogenic substrate H-DPro-Phe-Arg-AFC and various concentrations of the test compound. Residual enzyme activity (initial rate of reaction) was determined by measuring the […] and the IC50 value for the test compound was determined.

For the compound `CN(C)c1ccc(CNc2ncc(C(=O)NCc3ccc4c(N)nccc4c3)cc2Cl)cc1` [Example 11.02], the 50% inhibitory concentration (IC50) was 3 to 10 µM.

For `Nc1nccc2cc(CNC(=O)c3cnc(NCC4CCOCC4)c(Cl)c3)ccc12` [Example 11.03], the IC50 lay within 3 to 10 µM.

Regarding `Nc1nccc2cc(CNC(=O)c3cnc(Nc4ccccc4)c(Cl)c3)ccc12` [Example 11.04], the IC50 was 10 to 40 µM.

On to `CN(C)CCCNc1ncc(Cl)cc1C(=O)NCc1ccc2c(N)nccc2c1` [Example 11.05], for which the half-inhibitory concentration (IC50) was in the range of 1 to 3 µM.

Take `CN(C)CCOc1ccc(CNc2ncc(Cl)cc2C(=O)NCc2ccc3c(N)nccc3c2)cc1` [Example 11.06]: the IC50 was 3 to 10 µM.

Take `CN(C)CCCOc1cccc(CNc2ncc(Cl)cc2C(=O)NCc2ccc3c(N)nccc3c2)c1` [Example 11.07]: the IC50 was in the range of 1 to 3 µM.

Turning to `CN1CCN(c2ccccc2CNc2ncc(C(=O)NCc3ccc4c(N)nccc4c3)cc2Cl)CC1` [Example 11.08], the half-maximal inhibitory concentration (IC50) fell in the range of 10 to 40 µM.

Consider `Nc1nccc2cc(CNC(=O)c3cnc(NCC4CCN(Cc5ccccc5)CC4)c(Cl)c3)ccc12` [Example 11.10], for which the IC50 was in the range of 3 to 10 µM.

`COc1ccc(CNc2ncc(C(=O)NCc3ccc4c(N)nccc4c3)cc2Cl)cc1` [Example 11.11]: the IC50 lay within 10 to 40 µM.

`CS(=O)(=O)c1cccc(CNc2ncc(C(=O)NCc3ccc4c(N)nccc4c3)cc2Cl)c1` [Example 11.12]: the IC50 was 3 to 10 µM.

`Nc1nccc2cc(CNC(=O)c3cnc(NC4CCOCC4)c(Cl)c3)ccc12` [Example 11.13]: the IC50 fell in the range of 10 to 40 µM.

`Nc1nccc2cc(CNC(=O)c3cnc(NCCN4CCCCC4)c(Cl)c3)ccc12` [Example 11.14]: the 50% inhibitory concentration (IC50) was 3 to 10 µM.

Regarding `CN1CCN(CCNc2ncc(C(=O)NCc3ccc4c(N)nccc4c3)cc2Cl)CC1` [Example 11.15], the IC50 fell in the range of 10 to 40 µM.

In the case of `CN1CCC(CNc2ncc(C(=O)NCc3ccc4c(N)nccc4c3)cc2Cl)CC1` [Example 11.16], the IC50 was 3 to 10 µM.

Take `Nc1nccc2cc(CNC(=O)c3cnc(NCCn4ccnc4)c(Cl)c3)ccc12` [Example 11.17]: the IC50 was in the range of 10 to 40 µM.

Consider `Nc1nccc2cc(CNC(=O)c3cnc(NCc4ccccn4)c(Cl)c3)ccc12` [Example 11.18], for which the IC50 was 10 to 40 µM.

Take `Nc1nccc2cc(CNC(=O)c3cnc(NCc4cccnc4)c(Cl)c3)ccc12` [Example 11.19]: the IC50 is 10 to 40 µM.

Turning to `CC(C)N(CCNc1ncc(C(=O)NCc2ccc3c(N)nccc3c2)cc1Cl)C(C)C` [Example 11.20, N-((1-aminoisoquinolin-6-yl)methyl)-5-chloro-6-((2-(diisopropylamino)ethyl)amino)nicotinamide], the IC50 was in the range of 1 to 3 µM.

For the compound `CN(C)CCCNc1ncc(C(=O)NCc2ccc3c(N)nccc3c2)cc1Cl` [Example 11.21], the IC50 was 3 to 10 µM.

Turning to `CC(C)N1CCN(CCCNc2ncc(C(=O)NCc3ccc4c(N)nccc4c3)cc2Cl)CC1` [Example 11.22], the IC50 lay in the range of 3 to 10 µM.

`CN(C)CCOc1ccc(CNc2ncc(C(=O)NCc3ccc4c(N)nccc4c3)cc2Cl)cc1` [Example 11.23, N-((1-aminoisoquinolin-6-yl)methyl)-5-chloro-6-((4-(2-(dimethylamino)ethoxy)benzyl)amino)nicotinamide]: the IC50 was 3 to 10 µM.

In the case of `CN1CCN(CCCNc2ncc(C(=O)NCc3ccc4c(N)nccc4c3)cc2Cl)CC1` [Example 11.24], the IC50 lay in the range of 3 to 10 µM.

Take `COc1ccc(Nc2ncc(C(=O)NCc3ccc4c(N)nccc4c3)cc2Cl)cc1` [Example 11.25]: the IC50 lay in the range of 10 to 40 µM.

Regarding `CN(C)c1ccc(Nc2ncc(C(=O)NCc3ccc4c(N)nccc4c3)cc2Cl)cc1` [Example 11.26], the IC50 was 10 to 40 µM.

On to `Nc1nccc2cc(CNC(=O)c3cnc(Nc4ccc(N5CCOCC5)cc4)c(Cl)c3)ccc12` [Example 11.27], for which the IC50 was 10 to 40 µM.

Consider `Nc1nccc2cc(CNC(=O)c3cnc(Oc4ccc(Cl)cc4)c(Cl)c3)ccc12` [Example 13.01], for which the IC50 was 10 to 40 µM.

On to `COc1ccc(Oc2ncc(C(=O)NCc3ccc4c(N)nccc4c3)cc2Cl)cc1` [Example 13.02], for which the IC50 was in the range of 10 to 40 µM.

With `Nc1nccc2cc(CNC(=O)c3cnc(Oc4cccc(N5CCOCC5)c4)c(Cl)c3)ccc12` [Example 13.03], the concentration for half-maximal inhibition (IC50) was 10 to 40 µM.

In the case of `Nc1nccc2cc(CNC(=O)c3cnc(OCc4cccnc4)c(Cl)c3)ccc12` [Example 13.04], the IC50 is 10 to 40 µM.

With `Nc1nccc2cc(CNC(=O)c3cnc(Oc4ccccc4)c(Cl)c3)ccc12` [Example 13.05], the IC50 lay within 10 to 40 µM.

For the compound `Nc1nccc2cc(CNC(=O)c3cnc(Oc4ccccc4Cl)c(Cl)c3)ccc12` [Example 13.06], the IC50 lay in the range of 10 to 40 µM.

`N#Cc1ccc(Oc2ncc(C(=O)NCc3ccc4c(N)nccc4c3)cc2Cl)cc1` [Example 13.07]: the half-maximal inhibitory concentration (IC50) was 10 to 40 µM.

Regarding `N#Cc1cccc(Oc2ncc(C(=O)NCc3ccc4c(N)nccc4c3)cc2Cl)c1` [Example 13.08], the IC50 is 10 to 40 µM.

In the case of `N#Cc1ccccc1Oc1ncc(C(=O)NCc2ccc3c(N)nccc3c2)cc1Cl` [Example 13.09, N-((1-aminoisoquinolin-6-yl)methyl)-5-chloro-6-(2-cyanophenoxy)nicotinamide], the IC50 was 3 to 10 µM.

`CN(C)c1ccc(Oc2ncc(C(=O)NCc3ccc4c(N)nccc4c3)cc2Cl)cc1` [Example 13.10]: the IC50 lay within 10 to 40 µM.

As for `COc1cccc(Oc2ncc(C(=O)NCc3ccc4c(N)nccc4c3)cc2Cl)c1` [Example 13.11], the IC50 lay in the range of 10 to 40 µM.

In the case of `COc1ccccc1Oc1ncc(C(=O)NCc2ccc3c(N)nccc3c2)cc1Cl` [Example 13.12], the IC50 fell in the range of 10 to 40 µM.

In the case of `Cn1cnc2cc(Oc3ncc(C(=O)NCc4ccc5c(N)nccc5c4)cc3Cl)ccc21` [Example 13.13], the IC50 fell in the range of 3 to 10 µM.

For `Nc1nccc2cc(CNC(=O)c3cnc(Oc4cccc(N5CCCC5=O)c4)c(Cl)c3)ccc12` [Example 13.14], the IC50 lay within 10 to 40 µM.

In the case of `CS(=O)(=O)c1ccc(Oc2ncc(C(=O)NCc3ccc4c(N)nccc4c3)cc2Cl)cc1` [Example 13.15], the IC50 is 10 to 40 µM.

In the case of `CC(C)NC(=O)N(C)c1ccc(Oc2ncc(C(=O)NCc3ccc4c(N)nccc4c3)cc2Cl)cc1` [Example 13.16], the IC50 fell in the range of 3 to 10 µM.

For the compound `CN1CCC(COc2ncc(C(=O)NCc3ccc4c(N)nccc4c3)cc2Cl)CC1` [Example 13.17], the 50% inhibitory concentration (IC50) is 10 to 40 µM.

In the case of `Nc1nccc2cc(CNC(=O)c3cnc(OCCN4CCCC4)c(Cl)c3)ccc12` [Example 13.18], the IC50 was in the range of 10 to 40 µM.

Take `CN(C)CCOc1ncc(C(=O)NCc2ccc3c(N)nccc3c2)cc1Cl` [Example 13.19]: the IC50 was 10 to 40 µM.

`Nc1nccc2cc(CNC(=O)c3cnc(OCc4ccccn4)c(Cl)c3)ccc12` [Example 13.20]: the IC50 lay in the range of 10 to 40 µM.

Consider `Nc1nccc2cc(CNC(=O)c3cnc(OCc4ccncc4)c(Cl)c3)ccc12` [Example 13.21], for which the IC50 was 10 to 40 µM.

Turning to `CCN(CC)CCCOc1ncc(C(=O)NCc2ccc3c(N)nccc3c2)cc1Cl` [Example 13.22], the IC50 was in the range of 10 to 40 µM.

Consider `CN(C)CCCOc1ncc(C(=O)NCc2ccc3c(N)nccc3c2)cc1Cl` [Example 13.23], for which the IC50 lay within 10 to 40 µM.

For `Nc1nccc2cc(CNC(=O)c3cnc(Oc4ccc(N5CCNCC5)cc4)c(Cl)c3)ccc12` [Example 13.24, N-((1-aminoisoquinolin-6-yl)methyl)-5-chloro-6-(4-(piperazin-1-yl)phenoxy)nicotinamide], the IC50 was in the range of 1 to 3 µM.

Regarding `Nc1nccc2cc(CNC(=O)c3cnc(Oc4cccc(N5CCNCC5)c4)c(Cl)c3)ccc12` [Example 13.25], the concentration for half-maximal inhibition (IC50) lay in the range of 3 to 10 µM.

Take `CN1CCCN(c2ncc(Cl)cc2C(=O)NCc2ccc3c(N)nccc3c2)CC1` [Example 16.01]: the IC50 lay in the range of 10 to 40 µM.

`Nc1nccc2cc(CNC(=O)c3cc(Cl)cnc3N3CC(O)C3)ccc12` [Example 16.02]: the IC50 was in the range of 10 to 40 µM.

As for `Nc1nccc2cc(CNC(=O)c3cc(Cl)cnc3N3CCN(c4ccncc4)CC3)ccc12` [Example 16.03], the IC50 is 10 to 40 µM.

For `COc1ccccc1-c1cncc(C(=O)NCc2ccc3c(N)nccc3c2)c1` [Example 19.01, N-((1-aminoisoquinolin-6-yl)methyl)-5-(2-methoxyphenyl)nicotinamide], the IC50 is 10 to 40 µM.

Consider `Nc1nccc2cc(CNC(=O)c3cncc(Br)c3)ccc12` [Example 19.02, N-((1-aminoisoquinolin-6-yl)methyl)-5-bromonicotinamide], for which the IC50 lay in the range of 10 to 40 µM.

On to `Nc1nccc2cc(CNC(=O)c3cnc4[nH]ccc4c3)ccc12` [Example 19.03, 1H-Pyrrolo[2,3-b]pyridine-5-carboxylic acid (1-amino-isoquinolin-6-ylmethyl)-amide], for which the 50% inhibitory concentration (IC50) is 10 to 40 µM.

On to `Nc1nccc2cc(CNC(=O)c3cncc(Cl)c3)ccc12` [Example 19.04, N-((1-aminoisoquinolin-6-yl)methyl)-5-chloronicotinamide], for which the IC50 lay in the range of 10 to 40 µM.
